Drawing on a compilation of properties of binary mixtures (doi:10.1016/j.molliq.2022.118955), this text covers electrical conductivity for three compounds.

The series in a line: xn = mol fraction of the nth substance listed. The conditions noted are these: 298.15 K, 100 kPa.

`CCCC[n+]1ccn(C)c1.[I-]` + CCO: the electrical conductivity runs as follows: (x1 = 0.0198) 0.493 S/m; (x1 = 0.0392) 0.821 S/m; (x1 = 0.0676) 1.2 S/m; (x1 = 0.148) 1.69 S/m; (x1 = 0.2876) 1.53 S/m; (x1 = 0.4094) 1.1 S/m. Under “x1 = 1”, this compound returned an electrical conductivity of 0.0522 S/m.
In turn, `CC[n+]1ccn(C)c1.[I-]` + CCO showed an electrical conductivity (x1 = 0.0104) of 0.33 S/m; an electrical conductivity (x1 = 0.0208) of 0.581 S/m; an electrical conductivity (x1 = 0.0477) of 1.15 S/m; an electrical conductivity (x1 = 0.0766) of 1.62 S/m; an electrical conductivity (x1 = 0.1141) of 2.09 S/m; an electrical conductivity (x1 = 0.1621) of 2.51 S/m. Besides, the electrical conductivity turned out to be 2.75 S/m (x1 = 0.2282) and 2.76 S/m (x1 = 0.3112).
In the case of `CCO` + CC[n+]1ccn(C)c1.[I-], the electrical conductivity (x2 = 0) amounted to 0.0001 S/m.
